According to patent US10995068B2, “Synthetic sphingolipid-like molecules, drugs, methods of their synthesis and methods of treatment” (The Regents of the University of California, priority 2015, dated 2021):
Read-outs that look alike come from different tables or passages of the source.

How the values were obtained:
[1] = system: DU145 prostate cancer cells; assay: Cell Titer Glo proliferation assay in DU145; type: cell-based, human; settings: Mean ± SEM, n ≥ 3, read-out: IC50 values in prostate cancer cell lines, DU145
Protocol: (§1) Previously presented compounds 1-4 (FIG. 23), compounds 5-8 (FIG. 28), and control compound FTY720 (FIG. 2) were used to treat the well-established PC3 and DU145 prostate cancer lines (FIG. 29 and Table 1). A Cell Titer Glo assay was performed to measure proliferation of the cancer lines.
(§2) Cell culture studies: Sup-B15 cells are maintained at 2-3 million/mL in RPMI 1640 (Mediatech) supplemented with 10% fetal calf serum (FCS, Sigma-Aldrich), 10 mM Hepes (Mediatech), 55 μM β-mercaptoethanol (Sigma-Aldrich), 2 mM L-glutamine (Mediatech), and antibiotics. All adherent cells are maintained at 70-80% confluence. Cell are cultured in the following media: PC3 & A549, Ham's F12K (Corning Cell Gro) supplemented with 10% FCS and antibiotics; DU145 cells, MEM (Corning Cell Gro) supplemented with 10% FCS, 1 mM sodium pyruvate (Mediatech), and antibiotics; SW620 & MDA-MB-231, DMEM (Corning Cell Gro) with 10% FCS, 1 mM sodium pyruvate (Mediatech), and antibiotics; Panc-1 cells, DMEM (Corning Cell Gro) supplemented with 10% FCS and antibiotics. All of the above cell lines are available from the ATCC.
(§3) Viability assays: Cell Titer Glo assays (Cell Titer Glo Luminescent Cell Viability Assay kit, cat #G7571, Promega Corporation) are performed in clear bottom 96-well black cell culture plates (cat #655090, Greiner Bio-One, NC, USA). After plating at 1,000 cells/well in volume of 100 μl, cells are left undisturbed for at least 24 h before drug addition. After 72 h, cells are prepared for analysis by adding 10 μl of 0.1% Triton-X100 in PBS with shaking for 1 min at room temperature (RT). Cell Titer-Glo cell lysis reagent (20 μl) is then added followed by 1 min of shaking and a 10 min incubation in the dark at RT. Luminescence is detected using an IVIS imaging system (IVIS Lumina II, Perkin Elmer, USA). […] IC50s are determined using GraphPad Prism (GraphPad Software, Inc, La Jolla, Calif.). SupB-15 viability was determined by flow cytometry. Cell Titer Glo assays were performed with the other cell lines.

[2] = system: PC3 prostate cancer cells; assay: Cell Titer Glo proliferation assay in PC3; type: cell-based, human; settings: Cell Titer Glo, 72 h, Mean ± SEM, n ≥ 3, read-out: IC50 values in prostate cancer cell lines, PC3
Protocol: as §1, §2, §3

[3] = system: PC3 prostate cancer cells; assay: Cell viability by vital dye exclusion and flow cytometry in PC3; type: cell-based, human; settings: Homo sapiens; vital dye exclusion (DAPI) and flow cytometry, 72 h
Protocol: Thus, to determine whether analogues in accordance with embodiments of the invention are cytotoxic, studies were conducted using vital dye exclusion and flow cytometry (Table 2).
as §3

[4] = target: T1, S1P receptor 5 (Homo sapiens, UniProt Q9H228); assay: S1P receptor activation in CHO cells, S1P5; type: cell-based; settings: CHO cells over-expressing human S1P5
T1 construct: expressed in transfected cells
Description: (§4) Phosphorylation may have effects on S1P receptor activity that could cause bradycardia. Bradycardia, the dose-limiting toxicity that prevents the use of FTY720 in cancer patients, stems from FTY720-P's actions on S1P receptors 1 and 3. (Camm, J., et al. (2014) Am. Heart J. 168, 632-644; Cohen, J. A., Chun, J. (2011) Ann. Neurol. 69, 759-777; Sanna, M. G., et al. (2004) J. Biol. Chem. 279, 13839-13848; the disclosures of which are incorporated herein by reference). Phosphorylation by sphingosine kinase may make compounds competent to activate S1P receptors. FTY720, for example, when phosphorylated is known to activate S1P receptors 1 and 3. Because compound 5 could be phosphorylated, the activity of compound 5 and its phosphate 5-P (FIG. 28) on S1P receptors was evaluated (FIG. 32).
(§5) 51P1-5 activation: Chinese hamster ovary (CHO) cells stably over-expressing the different human 51P receptor subtypes are used. S1P1, S1P4 and S1P5 overexpressing CHO cells are cultured in medium containing alpha-MEM supplemented with 10% FBS, 50 μg/ml gentamycin and 0.5 mg/ml G418. S1P2 and S1P3 overexpressing CHO cells are cultured in RPMI containing 10% FBS, 50 μg/ml gentamycin and 0.5 mg/ml G418. Prior to stimulation, cells are rendered serum-free for 24 h. Stimulation is carried out for 10 min in serum-free DMEM containing 0.1 mg/ml of fatty-acid free BSA in the absence or presence of the various compounds or 51P. Protein lysates are prepared using a buffer containing (50 mM Tris pH 7.4, 150 mM NaCl, 10% glycerol, 1% Triton X-100, 2 mM EDTA, 2 mM EGTA, 40 mM β-glycerophosphate, 50 mM sodium fluoride, 10 mM sodium pyrophosphate, 2 mM dithiothreitol, 0.2 mM sodium orthovanadate). Cells are homogenized by one 5 sec burst in a MSE Ultrasonic Disintegrator, centrifuged and taken for protein determination. Equal amounts of protein are separated by SDS-PAGE (10% polyacrylamide gel), transferred to nitrocellulose membranes and subjected to Western blot analysis. Bands were stained using IRDye® secondary antibodies and visualized by the LICOR Odyssey® Fc Imaging system. Antibodies against phospho-Thr202/Tyr204-p42/p44-MAPK and phospho-Ser PKC substrate are from Cell Signaling, Frankfurt am Main, Germany. Polyclonal antisera against total p42 and total p44 were generated and characterized as previously described. (Huwiler, A.; Pfeilschifter, J. Br. J. Pharmacol. 1994, 113, 1455-1463; disclosure of which is incorporated herein by reference).

[5] = target: T2, S1P receptor 2 (Homo sapiens, UniProt O95136); assay: S1P receptor activation in CHO cells, S1P2; type: cell-based; settings: CHO cells over-expressing human S1P2
T2 construct: expressed in transfected cells
Description: as §4, §5

[6] = target: T3, S1P receptor 1 (Homo sapiens, UniProt P21453); assay: S1P receptor activation in CHO cells, S1P1; type: cell-based; settings: CHO cells over-expressing human S1P1, 10 min stimulation, Western blot
T3 construct: expressed in transfected cells
Description: as §4, §5

[7] = target: T4, S1P receptor 4 (Homo sapiens, UniProt O95977); assay: S1P receptor activation in CHO cells, S1P4; type: cell-based; settings: CHO cells over-expressing human S1P4
T4 construct: expressed in transfected cells
T4 sequence (O95977 1-384): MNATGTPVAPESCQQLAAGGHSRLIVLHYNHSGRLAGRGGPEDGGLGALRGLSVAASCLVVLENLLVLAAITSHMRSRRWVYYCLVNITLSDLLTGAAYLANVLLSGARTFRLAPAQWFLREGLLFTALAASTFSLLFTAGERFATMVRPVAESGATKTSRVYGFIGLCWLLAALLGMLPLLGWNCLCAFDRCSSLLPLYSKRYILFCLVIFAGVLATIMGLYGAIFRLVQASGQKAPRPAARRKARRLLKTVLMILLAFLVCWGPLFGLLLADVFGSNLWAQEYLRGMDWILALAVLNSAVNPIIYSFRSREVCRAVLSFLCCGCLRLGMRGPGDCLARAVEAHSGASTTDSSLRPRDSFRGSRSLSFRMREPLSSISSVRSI
Description: as §4, §5

[8] = target: T5, S1P receptor 3 (Homo sapiens, UniProt Q99500); assay: S1P receptor activation in CHO cells, S1P3; type: cell-based; settings: CHO cells over-expressing human S1P3
T5 construct: expressed in transfected cells
Description: as §4, §5

[9] = Lymphocyte sequestration in mice; type: in vivo, C57BL6 mice; settings: 10 mg/kg intraperitoneally, blood after 12 h, compared to saline
Description: (§6) In more exemplary embodiments, compounds 5 and 5-P were further examined for their ability to activate multiple S1P receptors in vivo. In particular, mouse heart rate and lymphocyte sequestration were examined. Mouse heart rate decreases causing bradycardia when S1P receptor 3 is activated while in humans this effect may be mediated by S1P receptor 1. In both mice and humans, lymphocytes are sequestered when the S1P receptor 1 is activated.
Lymphocyte sequestration: Female 8-24 week old C57BL6 mice are injected intraperitoneally with vehicle (0.9% saline or 20% acidified DMSO in 0.9% saline), 10 mg/kg FTY720, FTY720-phosphate, 5, or 5-P. After 12 h, blood is collected from the retro-orbital sinus under ketamine/xylazine anesthesia. 10 μL of whole blood is added to 190 μL of ACK red blood cell lysis buffer, incubated at room temperature for 3-5 minutes […], and the white blood cells recovered by centrifugation. Nucleated cells (Hoechst33342 positive) are counted using a hemocytometer to obtain the white blood cell count. Separately, 50 μL of whole blood is added to 1 mL of ACK red blood cell lysis buffer and incubated for 3-5 minutes at room temperature. Cells are washed with FACS wash (2% FCS in PBS with 0.05% NaN3) and red blood cell lysis repeated. Tubes are decanted and resuspended in 100 μL of FACS block (10% FCS in PBS with 0.05% NaN3) with directly conjugated antibodies recognizing B220, CD4, or CD8 (all from Biolegend, San Diego) for 30 min on ice. Cells are analyzed on a BD LSR II flow cytometer; the analysis is restricted to live cells (DAPI negative). These experiments are performed in accordance with all national or local guidelines and regulations and are approved by the UCI Institutional Animal Care and Use Committee.

[10] = Heart rate by ECG telemetry in mice; type: in vivo, C57BL/6 mice; settings: single dose 10 mg/kg intraperitoneally, compared to saline vehicle
Description: as §6
As shown in the telemetry readings detailed in FIG. 36, FTY720 (B) slowed heart rate comparison to compound 5 (C) and the control (A, saline). As shown in A, after administering saline, normal sinus rhythm with clearly discernible P waves, representing atrial depolarization, and QRS complexes, representing ventricular depolarization, at regular intervals is observed. The heart rate in this tracing was approximately 600 beats per minute (BPM). […] Finally, as shown in C, for exemplary embodiment compound 5, similar to the saline injection, normal sinus rhythm with well-defined and consistent P waves and QRS complexes were present following injection. The heart rate in this tracing was approximately 600 BPM, similar to saline.
Heart rate: C57BL/6 mice are surgically implanted with DSI TA-ETAF20 electrocardiographic telemetry devices (Data Sciences International, St. Paul, Minn.). The electrocardiographic data is collected and recorded using the PhysioTel telemetry system and Dataquest A.R.T 4.0 software (DSI). The telemetry device is implanted in the mouse's abdominal cavity with biopotential leads sutured in place in the chest wall. Buprenorphine (0.05 mg/kg) is administered every 12 h after surgery for pain management and enrofloxacin (3 mg/kg) is administered 2× per day for 7 days post-surgery as an antibiotic. Mice are permitted two weeks recovery after surgery before initiation of baseline telemetry recordings. Heart rate is calculated from ECG data taken in the freely moving, conscious mice. Mice are divided into two groups of 3 mice and treated intraperitoneally with a single dose of vehicle (0.9% saline or 20% acidified DMSO in 0.9% saline), 10 mg/kg FTY720, FTY720-Phosphate, 5, or 5-P and heart rate monitored continuously for 10 h. Mice are rested for two weeks at which point the experiment is repeated with the mice assigned to the alternate group. These experiments are performed in accordance with all national or local guidelines and regulations and were approved by the UCI Institutional Animal Care and Use Committee.

T5 sequence (Q99500 whole entry): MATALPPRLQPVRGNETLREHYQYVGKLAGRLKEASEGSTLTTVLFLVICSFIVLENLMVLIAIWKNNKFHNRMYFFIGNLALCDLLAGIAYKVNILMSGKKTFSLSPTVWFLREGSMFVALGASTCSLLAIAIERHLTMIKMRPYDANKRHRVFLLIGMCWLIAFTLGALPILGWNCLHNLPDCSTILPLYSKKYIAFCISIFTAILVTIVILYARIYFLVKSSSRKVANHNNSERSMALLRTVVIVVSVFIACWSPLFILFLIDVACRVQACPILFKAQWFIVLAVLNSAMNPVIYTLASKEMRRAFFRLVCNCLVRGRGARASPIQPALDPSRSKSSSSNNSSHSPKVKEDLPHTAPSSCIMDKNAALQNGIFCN
T3 sequence (P21453 whole entry): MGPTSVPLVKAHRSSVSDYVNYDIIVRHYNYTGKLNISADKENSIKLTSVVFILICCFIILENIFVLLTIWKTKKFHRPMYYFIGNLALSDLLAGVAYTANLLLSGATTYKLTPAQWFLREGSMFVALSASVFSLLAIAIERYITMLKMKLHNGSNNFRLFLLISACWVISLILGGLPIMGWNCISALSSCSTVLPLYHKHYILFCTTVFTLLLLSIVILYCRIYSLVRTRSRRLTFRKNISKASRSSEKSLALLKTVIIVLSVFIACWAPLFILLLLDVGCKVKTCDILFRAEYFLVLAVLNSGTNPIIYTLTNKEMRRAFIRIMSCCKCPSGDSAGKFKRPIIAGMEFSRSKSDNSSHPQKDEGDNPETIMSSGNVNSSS
T2 sequence (O95136 whole entry): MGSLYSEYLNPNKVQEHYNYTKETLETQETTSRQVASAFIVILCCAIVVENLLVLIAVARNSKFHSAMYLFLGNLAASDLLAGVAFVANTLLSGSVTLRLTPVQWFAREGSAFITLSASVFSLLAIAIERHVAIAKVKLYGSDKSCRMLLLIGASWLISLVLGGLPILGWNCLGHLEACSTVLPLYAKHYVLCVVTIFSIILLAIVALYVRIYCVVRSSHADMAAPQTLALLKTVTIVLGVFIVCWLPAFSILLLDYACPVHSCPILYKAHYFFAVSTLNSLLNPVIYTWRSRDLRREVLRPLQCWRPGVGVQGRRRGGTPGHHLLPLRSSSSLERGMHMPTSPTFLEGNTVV
T1 sequence (Q9H228 whole entry): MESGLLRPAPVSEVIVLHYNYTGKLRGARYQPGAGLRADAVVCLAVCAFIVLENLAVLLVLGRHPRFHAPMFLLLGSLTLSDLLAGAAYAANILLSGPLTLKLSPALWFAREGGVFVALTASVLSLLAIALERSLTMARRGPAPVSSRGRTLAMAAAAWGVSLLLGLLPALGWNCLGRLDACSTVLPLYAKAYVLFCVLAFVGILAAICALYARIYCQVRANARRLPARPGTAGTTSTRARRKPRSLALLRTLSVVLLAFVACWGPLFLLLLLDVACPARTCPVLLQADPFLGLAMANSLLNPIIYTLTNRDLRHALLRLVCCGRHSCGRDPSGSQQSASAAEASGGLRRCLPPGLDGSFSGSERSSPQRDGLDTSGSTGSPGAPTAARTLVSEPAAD

CCCCCCCCc1ccc([C@H]2C[C@H](CO)N[C@H]2CO)cc1 [Compound 3, (2R,3R,5R)-2,5-Bis(hydroxymethyl)-3-(4-octylphenyl)pyrrolidinium chloride]
IC50 ([1]; Homo sapiens, DU-145, 72 h): 5.3 ± 0.2 µM
IC50 ([2]; Homo sapiens): 4.9 ± 0.6 µM
IC50 [3]: 8.3 ± 0.2 µM

CCCCCCCCc1ccc(C2CCNC2CO)cc1 (stereo not drawn) [Compound 8]
IC50 ([1]; 72 h): 5.4 ± 0.3 µM
IC50 [2]: 6.5 ± 0.3 µM

CCCCCCCCc1ccc([C@@H]2CC(=O)N[C@H]2CO)cc1 [Compound 9, (4S,5R)-5-(hydroxymethyl)-4-(4-octylphenyl)Pyrrolidin-2-one]
IC50 ([1]; Homo sapiens, DU-145, 72 h): > 20 µM
IC50 ([2]; Homo sapiens): > 20 µM

CCCCCCCCc1ccc([C@H]2CC(=O)N[C@H]2CO)cc1 [Compound 10]
IC50 ([1]; 72 h): > 20 µM
IC50 [2]: > 20 µM

CCCCCCCCc1ccc([C@@H]2CC(=O)N[C@@H]2CO)cc1 [Compound 11]
IC50 ([1]; 72 h): > 20 µM
IC50 [2]: > 20 µM

CCCCCCCCc1ccc([C@@H]2CCN[C@H]2C)cc1.Cl [Compound 12]
IC50 ([1]; 72 h): 5 ± 0.1 µM
activation of S1P receptor 5 [4]: not able to activate
IC50 [2]: 4.1 ± 0.4 µM
activation of S1P receptor 2 [5]: not able to activate
activation of S1P receptor 1 [6]: not able to activate
activation of S1P receptor 4 [7]: not able to activate
activation of S1P receptor 3 [8]: not able to activate

CCCCCCCCc1ccc([C@H]2CCN[C@@H]2C)cc1 [Compound 13]
IC50 ([1]; 72 h): 5.1 ± 0.6 µM
IC50 [2]: 4.4 ± 0.6 µM

CCCCCCCCCCCCC/C=C/[C@@H](O)[C@@H](N)COP(=O)(O)O [Compound S1P, sphingosine-1 phosphate, reference compound]
activation of S1P receptor 5 [4]: activated
activation of S1P receptor 2 [5]: activated
activation of S1P receptor 1 [6]: activated
activation of S1P receptor 4 [7]: activated
activation of S1P receptor 3 [8]: activated

CCCCCCCCc1ccc(CC[C@](N)(CO)COP(=O)(O)O)cc1 [FTY720-P, reference compound]
lymphocyte sequestration [9]: significantly sequestered lymphocytes
decrease of heart rate [10]: approximately 50%
